Broadly, the IC50 is the concentration that inhibits the measured activity by half.

No end group written: not given here. Bounds are passed on as bounds.

Common to all, as to assay: biochemical
For one experiment, the target named is DR1 (DRB1*0101) (Homo sapiens, UniProt P01903+P01911, A100R/D57E/F55L/F60I/F76Y/I96L/L162R/M171V/P40L/Q125E/R42F/V115G/Y59C). The experiment is classed as binding.
A further experiment concerns the target DR4w4 (DRB1*0401) (Homo sapiens, UniProt P01903+P01911, A100K/A169T/F76Y/I96L/K127E/L162R/M171V/N62H/P40V/Q125Y/R42H/S133A/S149N/S66Y/V115G/V209L/W38E). The experiment is classed as binding.
Another experiment has as its target DR7 (DRB1*0701) (Homo sapiens, UniProt P01903+P01911, A100R/A102G/A103Q/D57E/D86V/E43K/F76Y/K127E/L162R/M171V/P40G/Q125H/Q99D/R33Q/R42Y/R54Q/S133A/S66F/T210M/V115G/Y107V/Y59L/Y89S). The experiment is classed as binding.
Another experiment concerns the target DRB1*0301 (Homo sapiens, UniProt P01903+P01911, A100K/A102G/A103R/A169T/F55Y/I96L/K41T/L162R/M171V/P40S/Q125H/Q178H/Q39Y/R42S/S66N/T106N/T262R/W38E/Y61H). The experiment is classed as binding.
In the next experiment the target is DRB1*0405 (Homo sapiens, UniProt P01903+P01911, A100R/A169T/D86S/F76Y/I96L/K127E/L162R/M171V/N62H/P40V/Q125Y/R42H/S133A/S149N/S66Y/V115G/V209L/W38E). The experiment is classed as binding.
A further experiment concerns the target DRB1*0802 (Homo sapiens, UniProt P01903+P01911, A100R/A103L/A169T/F76Y/H45Y/I96F/K41T/L162R/M171V/P40S/Q125H/Q178H/Q39Y/Q99D/R218S/R42G/S66Y/V115G/W38E). The experiment is classed as binding.
A further experiment concerns the target DRB1*1201 (Homo sapiens, UniProt P01903+P01911, A100R/A169T/D57E/D86V/F55L/H45Y/K41T/L162R/M171V/P40S/Q125H/Q178H/Q39Y/Q99D/R42G/S66L/T262R/V114A/V67L/W38E/Y59H/Y61H/Y89S). The experiment is classed as binding.
The target in another experiment is DRB1*1302 (Homo sapiens, UniProt P01903+P01911, A100E/A169T/K41T/L162R/M171V/P40S/Q125H/Q178H/Q39Y/Q99D/R42S/S66N/T262R/V115G/W38E/Y61H). The experiment is classed as binding.
The next experiment addresses DRB1*1501 (Homo sapiens, UniProt P01903+P01911). The experiment is classed as binding.
A further experiment has as its target DRB4*0101 (Homo sapiens, UniProt P01903+P13762, G164S). The experiment is classed as binding.
A further experiment has as its target DRB1*1101 (Homo sapiens, UniProt P01903+P01911, A100R/A169T/A87E/I96F/K41T/L162R/M171V/P40S/Q125H/Q178H/Q39Y/Q99D/R42S/S66Y/T262R/V115G/W38E). Particulars: Binding affinity DRB1 *1101.
The target of another experiment is DRB5*0101 (Homo sapiens, UniProt P01903+Q30154). Particulars: Binding affinity DRB5 *0101.
A further experiment concerns the target DRB1*0901 (Homo sapiens, UniProt P01903+P01911, A100R/A103E/D57H/D86V/F55Y/F60I/F76Y/I96F/K127E/L162R/M171V/P40D/Q125H/Q99R/R33Q/R42F/S133A/S66N/T210M/V115G/W38K/Y107V/Y59G/Y89S). The experiment is classed as binding.

DRB1*1101, sequence (P01903 26-254 limits assumed, other chains not shown): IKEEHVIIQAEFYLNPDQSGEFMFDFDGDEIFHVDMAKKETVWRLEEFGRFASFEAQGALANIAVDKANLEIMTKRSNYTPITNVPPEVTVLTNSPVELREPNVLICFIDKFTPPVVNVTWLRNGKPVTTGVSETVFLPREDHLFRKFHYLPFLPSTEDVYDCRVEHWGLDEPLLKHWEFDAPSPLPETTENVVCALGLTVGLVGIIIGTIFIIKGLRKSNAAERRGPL
DRB1*0301, sequence (P01903 26-254 limits assumed, other chains not shown): as above
DRB1*1302, sequence (P01903 26-254 limits assumed, other chains not shown): as above

Regarding VEFMSFLTALKRFLQ [Peptide 89.0015], the IC50 came out at 19 nM against DR1 (DRB1*0101); 72 nM against DR4w4 (DRB1*0401); 109 nM at DR7 (DRB1*0701); 347 nM on DRB1*0301; 453 nM against DRB1*0405; 102 nM against DRB1*0802. Moreover, the half-maximal inhibitory concentration (IC50) on DRB1*1201 worked out at 91 nM; at DRB1*1302, 9820 nM; against DRB1*1501 it was 1840 nM; at DRB4*0101, 42 nM; at DRB1*1101, 44 nM; at DRB5*0101, 19 nM.

For DHDITDDSDIAYKYA [Peptide 90.0117], the IC50 was more than 20000 nM against DR1 (DRB1*0101); 510 nM on DR4w4 (DRB1*0401); more than 20000 nM on DR7 (DRB1*0701); 100 nM against DRB1*0301; 2210 nM against DRB1*0405; more than 20000 nM against DRB1*0802. Besides, the IC50 at DRB1*1201 is more than 20000 nM; on DRB1*1302, 535 nM; at DRB1*1501, more than 20000 nM; against DRB4*0101 it was 577 nM; at DRB1*1101, more than 20000 nM; at DRB5*0101 it was 6830 nM.

For LKVLIKQHSLYTHLQ [Peptide 89.0061], the IC50 was 4.3 nM on DR1 (DRB1*0101); 17 nM on DR4w4 (DRB1*0401); 451 nM against DR7 (DRB1*0701); 1830 nM on DRB1*0301; 687 nM at DRB1*0405; 57 nM against DRB1*0802. The IC50 at DRB1*1201 was 33 nM; at DRB1*1302, 30 nM; against DRB1*1501 it was 18 nM; against DRB4*0101 it was 11 nM; on DRB1*1101 it was 43 nM.

Regarding `CC[C@H](C)[C@H](N)C(=O)N[C@@H](CCC(=O)O)C(=O)N[C@@H](Cc1ccccc1)C(=O)N[C@H](C(=O)N[C@H](C(=O)N[C@@H](Cc1ccccc1)C(=O)N[C@@H](CC(C)C)C(=O)NCC(=O)N[C@@H](C)C(=O)N[C@@H](CC(C)C)C(=O)N[C@@H](CCCCN)C(=O)N[C@@H](CO)C(=O)N[C@@H](Cc1ccccc1)C(=O)N[C@@H](CC(C)C)C(=O)N[C@@H](CCCCN)C(=O)O)[C@@H](C)O)[C@@H](C)CC` [Peptide 89.0033], the IC50 against DR1 (DRB1*0101) came out at 8.6 nM; at DR4w4 (DRB1*0401), 74 nM; against DR7 (DRB1*0701), 410 nM; against DRB1*0301, 2300 nM; against DRB1*0405, 1640 nM; at DRB1*1201 it was 410 nM. For the same compound, the IC50 against DRB1*1302 is more than 20000 nM; against DRB1*1501, 77 nM; on DRB4*0101 it was 44 nM; on DRB5*0101 it was 34 nM.

With IHFLQGAIISFVNSN [Peptide 89.0089], the concentration for half-maximal inhibition (IC50) was 4.2 nM on DR1 (DRB1*0101); 499 nM against DR4w4 (DRB1*0401); 1020 nM at DR7 (DRB1*0701); more than 20000 nM against DRB1*0301; 2610 nM against DRB1*0405; 1900 nM at DRB1*0802. For the same compound, the IC50 against DRB1*1201 is 71 nM; against DRB1*1302 it was 442 nM; against DRB1*1501, 54 nM; against DRB4*0101 it was 272 nM; on DRB5*0101, more than 20000 nM.

Turning to SNLLSIPETCMVIEP [Peptide 89.0067], the IC50 against DR1 (DRB1*0101) was 347 nM; on DR4w4 (DRB1*0401), 320 nM; on DRB1*0301 it was more than 20000 nM; on DRB1*0405, 18 nM; against DRB1*0802 it was 16800 nM; on DRB1*0901 it was 1310 nM. Also, the IC50 at DRB1*1201 was 3860 nM; against DRB1*1302, 350 nM; at DRB1*1501, 510 nM; against DRB4*0101, 963 nM; at DRB1*1101 it was 12800 nM; on DRB5*0101, more than 20000 nM.

As to YFKYFKEDAAKYSKT [Peptide 90.0205], the IC50 at DR4w4 (DRB1*0401) is 70 nM; on DR7 (DRB1*0701), 3630 nM; on DRB1*0301, 483 nM; at DRB1*0405, more than 20000 nM; at DRB1*0802, 6030 nM; against DRB1*1201, 8050 nM. For the same compound, the IC50 is more than 20000 nM against DRB1*1302; 3910 nM at DRB1*1501; more than 20000 nM at DRB4*0101; 1890 nM on DRB1*1101; 4660 nM on DRB5*0101.

The values above are taken from patent US9340577B2, “HLA binding motifs and peptides and their uses” (priority 1992, dated 2016).
